From patent US20140088178A1, “COMBINATION OF ANTI-CLUSTERIN OLIGONUCLEOTIDE WITH ANDROGEN RECEPTOR ANTAGONIST FOR THE TREATMENT OF PROSTATE CANCER” (THE UNIVERSITY OF BRITISH COLUMBIA, priority 2011, published 2014)
e = 2'-O-(2-methoxyethyl) (MOE); d = 2'-deoxy (DNA)

Assays:
clusterin (CLU) = test: Western blot of clusterin (CLU) expression after AR pathway inhibition; format: cell-based, human
Protocol: The immune complexes were recovered with protein-G sepharose for 2 h and then washed with radioimmunoprecipitation assay buffer (RIPA) at least thrice, centrifuged, and submitted to SDS-PAGE, followed by Western blotting. […] Cells are harvested and performed for western blot analysis.

[1] = humans; cited from earlier work
CRPC LNCaP xenografts = test: Castration-resistant LNCaP xenograft in castrated male athymic nude mice; format: in vivo; conditions: week 16 from start of treatment; euthanasia for tumour volume exceeding 10% of body weight
Protocol: The effects of combination treatment on castration-resistant LNCaP tumor growth were assessed in castrated male athymic nude mice. Male athymic nude mice were inoculated with LNCaP cells in Matrigel in two sites of mouse flank lesion. […]. Custirsen (10 mg/kg/each dose) or SCRB (10 mg/kg/each dose) was injected i.p. once daily for the first week and then three times per week. […] Tumor volume was measured once per week. Serum PSA was determined weekly. PSA doubling time (PSAdt) and velocity were calculated by the log-slope method (PSAt−PSAinitial×e^mt). All animal procedures were performed according to the guidelines of the Canadian Council on Animal Care and appropriate institutional certification.
Male athymic mice (Harlan Sprague-Dawley, Inc.) were injected s.c. with 1×10^6 LNCaP cells. When tumors grow in 150 mm^3 and serum PSA was >50 ng/ml, mice are castrated. […] Each experimental group consisted of 13 mice. […] Tumor volume and serum PSA was measured as previously described (Sowery et al., 2008). All animal procedures were performed according to the guidelines of the Canadian Council on Animal Care. Each three mice xenografts were sacrificed at 7 days after start treatment and the rest were harvested the end of the study and snap-frozen in liquid nitrogen. […]

LNCaP cells [2] = test: Autophagy induction; format: cell-based, human
[3] = tested on: GRP78, ATF4, IRE1, CHOP and cleaved-ATF6; test: ER stress marker expression after AR1; format: cell-based; conditions: concomitant with CLU induction
From the text: ER stress activates a complex intracellular signaling pathway, called the unfolded protein response (UPR), which is tailored to re-establish protein homeostasis (proteostasis) by inhibiting protein translation and promoting ER-associated protein degradation via the ubiquitin-proteasome system (UPS).

[4] = tested on: Akt and p90Rsk phosphorylation; test: Western blot of Akt and p90Rsk phosphorylation; format: cell-based, human; conditions: FIG. 42B
Protocol: YB-1 binds to CLU promoter leading to increased CLU expression after ER stress (Shiota et al., 2011). […]. Western blot analysis is done using phospho Akt, phospho ERK, Akt and ERK antibodies. […]. […] After 48 h treatment, western blot analysis is done using phospho Akt, phospho ERK, phospho mTOR, phospho P70S6K, Akt, ERK, mTOR and P70S6K antibodies.

LNCaP cells [5] = test: Flow cytometry of apoptotic sub-G1 fraction (propidium iodide staining); format: cell-based, human; conditions: 500 nmol/L custirsen or ScrB, 10 μmol/L AR1, 48 hrs
Protocol: After a time course exposure, cell growth was measured by crystal violet assay as previously described (cleave et al., 2005). Detection and quantitation of apoptotic cell cycle population were analyzed by flow-cytometry (Beckman Coulter Epics Elite; Beckman, Inc.) based on 2N and 4N DNA content as previously described (Lamoureux et al., 2011). For CSS condition, LNCaP cells were plated in RPMI with 5% FBS switched to CSS at the next day, and treatment was started same as FBS condition. Each assay was done in triplicate three times.
Combination treatment enhances LNCaP apoptosis in flow cytometry analysis. […] The proportion of cells in sub-G0, G0-G1, S, G2-M is determined by propidium iodide staining. […] P value represents between treatment arms and their respective controls *p<0.05, **p<0.01, ***p<0.001 (Wilcoxon matched-pairs test).

[6] = tested on: AR transcriptional activity; test: PSA-luciferase reporter assay of R1881 induced AR transcriptional activity; format: cell-based, human; conditions: LNCaP cells; 500 nmol/L custirsen, 10 μmol/L AR1, 1 nmol/L R1881
Protocol: Effect of combination treatment on AR transactivation and translocation. […] Cells were harvested, and luciferase activity was determined. Columns represent means of at least three independent experiments done in triplicate. PSA activation was normalized Renilla-luciferase activity.
LNCaP cells were seeded at a density of 5×10^4 in 12-well plates and transfected the following day with custirsen or SCRB. […] Reporter assays were normalized to Renilla and luciferase activity expressed by Firefly to Renilla ratio in arbitrary light units. All experiments were carried out in triplicate wells and repeated five times using different preparations of plasmids.
The effects of combination treatment on androgen-induced, AR-mediated gene activation were evaluated.

CRPC = conditions: combined with docetaxel chemotherapy; cited from earlier work
AR = target: T1, AR (Homo sapiens, UniProt P10275, T878A); test: Western blot of AR protein expression; conditions: FIG. 17: LNCaP, 500 nM custirsen 48 h, then 10 μM AR1 48 hours
T1 sequence (P10275 1-920 T878A): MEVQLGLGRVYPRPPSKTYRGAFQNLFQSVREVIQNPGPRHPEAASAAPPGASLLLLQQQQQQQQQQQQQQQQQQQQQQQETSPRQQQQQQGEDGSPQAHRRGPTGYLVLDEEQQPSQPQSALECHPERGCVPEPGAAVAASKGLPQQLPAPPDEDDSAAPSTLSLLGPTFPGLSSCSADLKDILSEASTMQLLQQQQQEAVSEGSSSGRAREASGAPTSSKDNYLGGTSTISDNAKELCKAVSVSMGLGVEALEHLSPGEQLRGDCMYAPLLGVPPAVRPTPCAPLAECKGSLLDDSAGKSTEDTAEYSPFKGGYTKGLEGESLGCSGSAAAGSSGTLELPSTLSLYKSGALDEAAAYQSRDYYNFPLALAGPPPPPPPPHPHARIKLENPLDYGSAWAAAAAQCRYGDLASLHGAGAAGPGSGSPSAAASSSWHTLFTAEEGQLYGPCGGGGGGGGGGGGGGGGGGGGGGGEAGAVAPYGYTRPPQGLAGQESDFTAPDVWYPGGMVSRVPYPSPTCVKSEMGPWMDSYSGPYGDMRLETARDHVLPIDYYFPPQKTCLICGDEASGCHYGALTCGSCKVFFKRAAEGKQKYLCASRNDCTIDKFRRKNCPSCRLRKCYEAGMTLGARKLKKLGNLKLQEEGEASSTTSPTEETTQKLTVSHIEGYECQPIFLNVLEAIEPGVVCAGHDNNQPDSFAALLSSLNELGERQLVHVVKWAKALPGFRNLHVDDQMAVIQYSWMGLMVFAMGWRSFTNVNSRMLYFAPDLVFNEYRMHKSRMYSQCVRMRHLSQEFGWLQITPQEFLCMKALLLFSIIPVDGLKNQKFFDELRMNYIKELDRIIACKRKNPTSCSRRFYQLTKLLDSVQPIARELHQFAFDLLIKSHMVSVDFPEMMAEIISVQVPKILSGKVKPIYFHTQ
Protocol: Cells (1×10^6) were seeded in 10 cm dishes with RPMI medium containing 5% FBS. The next day, cells were transfected with 500 nM custirsen or control for 48 h.
AR expression is detected by western blot. […] “OTR” means cells treated with oligofectamime only.

CNC(=O)c1ccc(N2C(=S)N(c3ccc(C#N)c(C(F)(F)F)c3)C(=O)C2(C)C)cc1F [AR1, 4-(3-(4-cyano-3-(trifluoromethyl)phenyl)-5,5-dimethyl-4-oxo-2-thioxoimidazolidin-1-yl)-2-fluoro-N-methylbenzamide]
clusterin protein expression (clusterin (CLU); LNCaP, 10 μmol/L for 48 hrs, 5% FBS or 5% CSS, western blot): strongly increases | maximum tolerated dose [1]: 240 mg/day | side effects [1]: fatigue | overall survival (CRPC LNCaP xenografts): about 40% | autophagy (LNCaP cells [2]): induces autophagy | ER stress markers [3]: up-regulation | Akt and p90Rsk phosphorylation [4]: increases

CC(=O)O[C@@H]1[C@@H](OC(C)=O)[C@@H](O)[C@H](Oc2c(-c3ccc(O)cc3)oc3cc(O)cc(O)c3c2=O)O[C@H]1C [SL101]
effect on AR1 induced up-regulation of CLU (clusterin (CLU); inhibitor added with AR1): abrogates

ScrB: scrambled antisense oligonucleotide control, 5′-CAGCGCTGACAACAGTTTCAT-3′ (SEQ ID NO: 44) (2'-O-methoxyethyl modified control oligonucleotide, pattern not given here, further chemistry not given here)
apoptosis (sub-G1 fraction) (LNCaP cells [5]): 15.2%

custirsen: antisense oligonucleotide reducing clusterin expression, CAGCAGCAGAGTCTTCATCAT (Seq. ID No.: 3), phosphorothioate backbone, 2′-O-methoxyethyl at nucleotides 1-4 and 18-21 (sugars from the 5' end e4 d13 e4, all phosphorothioate, methylation of C not given here; listed as Homo sapiens)
apoptosis (sub-G1 fraction) (LNCaP cells [5]): 20% | reduction of R1881 induced AR transcriptional activity (PSA luciferase transactivation) [6]: 90% | HR (CRPC): 0.50 | gain in overall survival (CRPC): 7 month | reduced death rate (CRPC): 50% | reduction of AR protein expression (AR): no effect
